Source: PMC11506774 (Biomolecules, 2024)
≈ marks a conversion by molar mass, not a printed value. Ends that are not written are not given here.

Key:
[1] = system: EV-A71/FY0805; conditions: for IC50 (µg/mL) EV-A71 /FY0805: 24 h
[2] = system: EV-A71/FY0805; experiment: Receptor competition inhibition assay with cell-free heparan sulfate (HS); type: cell-based; conditions: peptide 62.5 µg/mL pre-incubated with HS (0–0.5 mg/mL) for 1 h, then mixed with 100 TCID50/50 µL EV-A71/FY0805, RD cells 24 h, crystal violet
Procedure: To confirm the interaction of P25 with receptor heparan sulfate (HS) on the cell surface, 50 µL P25 or its derivatives at a concentration of 62.5 µg/mL were pre-incubated with 50 µL cell-free HS (MCE, HY-101916, Princeton, NJ, USA) at different concentrations of 0–0.5 mg/mL at 37 °C for 1 h, mixed with 100 TCID50/50 µL of EV-A71/FY0805, and infected the pre-seeding RD monolayer cells on 96-well plates for 24 h. The CPE was detected and stained using crystal violet. The optical density (OD) at 550 nm was read using the TECAN Infinite 200 PRO instrument.

[3] = system: RD cells; experiment: Cytotoxicity assay (CCK-8); type: cell-based; conditions: 24 h, 2-fold dilutions from 1 mg/mL, CCK-8, absorbance 450 nm, mean ± SD, at least two independent experiments
Procedure: RD cells at a density of 4 × 10^4/100 µL/well were seeded in 96-well plates 24 h prior to the cytotoxicity assay. The peptide P25 and its derivatives were reconstituted in DMSO to a concentration of 25 mg/mL and then diluted to 1 mg/mL in DMEM with 100 mM HEPES, from which 2-fold serial dilutions of the peptides were produced, starting with the same medium. DMSO diluted in the same medium served as the control. Fifty microliters of diluted peptides and the control medium were added to the cells and cultured for 24 h. After cultivation, 5 µL of the enhanced CCK-8 reagent (Beyotime, C0043, Shanghai, China) were added directly to each well of the cell culture and cultured for an additional hour. Absorbance at 450 nm was detected using a TECAN Infinite 200 PRO instrument. The cell viability was normalized to the control, and the concentration at which a peptide inhibited 50% of the cell viability (CC50) was calculated using GraphPad Prism 9.5.1 (GraphPad software, San Diego, CA, USA).

[4] = system: Poliovirus 3/nOPV3; conditions: 24 h
[5] = system: EV-D68; experiment: Immunostaining of viral VP1 after post-infection peptide treatment; type: cell-based; conditions: RD cells infected with 10 TCID50/50 µL EV-D68 for 1 h, washed, peptide at 125 µg/mL for 24 h, VP1 immune-stained area (ImageJ)
Procedure: RD cells at a density of 4 × 10^4/100 µL/well were seeded in 96-well plates 24 h prior to infection. Fifty microliters of the diluted peptide P25 were added under the following conditions: (1) pre-treatment: cells were pretreated with the peptides for 6 h, 4 h, and 2 h at 35 °C, followed by washing twice with DMEM before virus infection; (2) co-treatment: the peptide was added to the cells together with virus without washing; (3) post-treatment: […] to the medium. Co-treatment with a homemade neutralizing antibody of EV-D68 was employed as the reference control. An amount of 100 TCID50/50 µL was used for the CPE reading, while 10 TCID50/50 µL was used for immunostaining. After 22–24 h of incubation the cells were fixed using 4% formaldehyde and stained with crystal violet or an antibody. The staining of crystal violet was measured at 550 nm using a TECAN Infinite 200 PRO instrument. To detect EV-D68, the polyclonal anti-VP1 (Genetek, GTX132313, South San Francisco, CA, USA) was employed for immunostaining, while the rabbit polyclonal anti-VP1 for the staining of Echo11 was prepared in our laboratory. […] The number of plaques was counted using the CTL ELISPOT reader. […]

[6] = system: EV-D68/BCH895A; conditions: RD cells, 24 h, crystal violet
[7] = system: Echo 30/WZ16; conditions: RD cells, 24 h, crystal violet
[8] = system: HCV; conditions: cited from earlier work
[9] = system: EV-A71; conditions: Table S2, anti-viral target EV-A71; ref [21]; cited from earlier work
Excerpt: page 2: Biomolecules 2024, 14, 1331. https://doi.org/10.3390/biom14101331 2 of 10 Table S2. Self-derived antiviral peptides. Source Virus Protein Peptide Sequence Mechanism Anti-viral EC50 Reference target […] Interfering PA- Influenza A PB1 PB11-25 TTFPYT binding domain of Influenza A / [48] PB1 PB1731– […] Interfering PB1- Influenza A PB1 757 ELGRQK binding domain of Influenza A / [22] PB2 EV-A71 VP1 SP40 […] Prevented EV-A71 EV-A71 6-9.3 [21] attachment μM […] Inhibiting S 0.32- HCoV-19 S P3 […] mediated cell–cell HC ...

[10] = co-treatment, 100 TCID50/50 µL, mean ± SD, at least two independent experiments, >125 = protection less than 50% at 125 µg/mL, NO = no inhibition observed
[11] = peptide at 125 µg/mL (about 56 µM) co-incubated with 100 TCID50/50 µL virus

CC[C@H](C)[C@H](NC(=O)[C@H](Cc1c[nH]cn1)NC(=O)[C@H](CCCCN)NC(=O)[C@@H]1CCCN1C(=O)[C@H](CCCCN)NC(=O)[C@H](CCSC)NC(=O)[C@H](Cc1ccc(O)cc1)NC(=O)[C@@H](NC(=O)[C@H](CCCNC(=N)N)NC(=O)[C@@H](NC(=O)[C@@H](NC(=O)[C@@H](NC(=O)[C@@H](N)[C@@H](C)O)C(C)C)[C@@H](C)O)C(C)C)C(C)C)C(=O)N[C@@H](CCCCN)C(=O)O [Peptide P25.2]
IC50 (µg/mL) EV-A71 /FY0805 [1]: >125 µg/mL

CC[C@H](C)[C@H](NC(=O)[C@H](Cc1c[nH]cn1)NC(=O)[C@H](CCCCN)NC(=O)[C@@H]1CCCN1C(=O)[C@H](CCCCN)NC(=O)[C@H](CCSC)NC(=O)[C@H](Cc1ccc(O)cc1)NC(=O)[C@@H](NC(=O)[C@H](CCCNC(=N)N)NC(=O)[C@@H](NC(=O)[C@@H](NC(=O)[C@@H](NC(=O)[C@@H](N)[C@@H](C)O)C(C)C)[C@@H](C)O)C(C)C)C(C)C)C(=O)N[C@@H](CCCCN)C(=O)N[C@@H](C)C(=O)N[C@@H](Cc1c[nH]c2ccccc12)C(=O)N[C@@H](C)C(=O)O [Peptide P25.5]
Interference of HS with the antiviral activity of the peptide [2]: No significant interference | IC50 (µg/mL) EV-A71 /FY0805 [1]: >125 µg/mL

CC[C@H](C)[C@H](NC(=O)[C@H](Cc1c[nH]cn1)NC(=O)[C@H](CCCCN)NC(=O)[C@@H]1CCCN1C(=O)[C@H](CCCCN)NC(=O)[C@H](CCSC)NC(=O)[C@H](Cc1ccc(O)cc1)NC(=O)[C@@H](NC(=O)[C@H](CCCNC(=N)N)NC(=O)[C@@H](NC(=O)[C@@H](NC(=O)[C@@H](NC(=O)[C@@H](NC(=O)[C@@H](N)Cc1ccccc1)[C@@H](C)O)C(C)C)[C@@H](C)O)C(C)C)C(C)C)C(=O)N[C@@H](CCCCN)C(=O)N[C@@H](C)C(=O)N[C@@H](Cc1c[nH]c2ccccc12)C(=O)N[C@@H](C)C(=O)O [Peptide P25.8]
CC50 [3]: 213.07 ± 29.72 µg/mL (≈ 97.9 µM) | IC50 (µg/mL) Poliovirus 3 /nOPV3 [4]: 61.65 ± 4.59 µg/mL (≈ 28.3 µM) | Interference of HS with the antiviral activity of the peptide [2]: interfered with by HS | IC50 (µg/mL) EV-A71 /FY0805 [1]: 24.49 ± 2.96 µg/mL (≈ 11.3 µM)

CC[C@H](C)[C@H](NC(=O)[C@H](Cc1c[nH]cn1)NC(=O)[C@H](CCCCN)NC(=O)[C@@H]1CCCN1C(=O)[C@H](CCCCN)NC(=O)[C@H](CCSC)NC(=O)[C@H](Cc1ccc(O)cc1)NC(=O)[C@@H](NC(=O)[C@H](CCCNC(=N)N)NC(=O)[C@@H](NC(=O)[C@@H](NC(=O)[C@@H](NC(=O)[C@@H](NC(=O)[C@H](Cc1ccccc1)NC(=O)CNC(=O)[C@@H](NC(=O)[C@@H]1CCCN1C(=O)[C@H](CCC(N)=O)NC(=O)[C@@H](N)Cc1c[nH]cn1)C(C)C)[C@@H](C)O)C(C)C)[C@@H](C)O)C(C)C)C(C)C)C(=O)N[C@@H](CCCCN)C(=O)O [Peptide P25.9]
IC50 (µg/mL) Poliovirus 3 /nOPV3 [4]: 108.10 ± 39.15 µg/mL (≈ 45.7 µM) | Interference of HS with the antiviral activity of the peptide [2]: interfered with by HS | IC50 (µg/mL) EV-A71 /FY0805 [1]: 13.02 ± 0.81 µg/mL (≈ 5.5 µM) | Inhibition of the synthesis of the viral protein [5]: significantly inhibited the synthesis of the viral protein

CC[C@H](C)[C@H](NC(=O)[C@H](Cc1c[nH]cn1)NC(=O)[C@H](C)NC(=O)[C@@H]1CCCN1C(=O)[C@H](CCCCN)NC(=O)[C@H](CCSC)NC(=O)[C@H](Cc1ccc(O)cc1)NC(=O)[C@@H](NC(=O)[C@H](CCCNC(=N)N)NC(=O)[C@@H](NC(=O)[C@@H](NC(=O)[C@@H](NC(=O)[C@@H](NC(=O)[C@H](Cc1ccccc1)NC(=O)CN)[C@@H](C)O)C(C)C)[C@@H](C)O)C(C)C)C(C)C)C(=O)N[C@@H](C)C(=O)N[C@@H](C)C(=O)N[C@@H](Cc1c[nH]c2ccccc12)C(=O)N[C@@H](C)C(=O)O [Peptide P25.12]
IC50 (µg/mL) EV-A71 /FY0805 [1]: 41.17 ± 7.04 µg/mL (≈ 19.4 µM)

CC[C@H](C)[C@H](NC(=O)[C@H](CCCNC(=N)N)NC(=O)[C@@H](NC(=O)[C@@H](NC(=O)[C@@H](NC(=O)[C@H](CCCCN)NC(=O)[C@H](Cc1ccccc1)NC(=O)CN)C(C)C)C(C)C)[C@@H](C)O)C(=O)N[C@@H](Cc1ccc(O)cc1)C(=O)N[C@@H](Cc1c[nH]cn1)C(=O)N[C@@H](CCCCN)C(=O)N[C@@H](C)C(=O)N[C@@H](CCCCN)C(=O)N[C@@H](Cc1c[nH]cn1)C(=O)N[C@H](C(=O)N[C@@H](CCCCN)C(=O)N[C@@H](C)C(=O)N[C@@H](Cc1c[nH]c2ccccc12)C(=O)N[C@@H](CS)C(=O)O)[C@@H](C)O [Peptide P25.A81GF]
IC50 (µg/mL) Poliovirus 3 /nOPV3 [4]: >125 µg/mL | IC50 (µg/mL) EV-D68 /BCH895A [6, 10]: >125 µg/mL | IC50 (µg/mL) EV-A71 /FY0805 [1]: 29.28 ± 3.97 µg/mL (≈ 12.9 µM) | IC50 (µg/mL) Echo 30 /WZ16 [7, 10]: >125 µg/mL

CC[C@H](C)[C@H](NC(=O)[C@H](CCCNC(=N)N)NC(=O)[C@@H](NC(=O)[C@@H](NC(=O)[C@@H](NC(=O)[C@H](CCCCN)NC(=O)[C@@H](NC(=O)[C@@H](N)CCCCN)C(C)C)C(C)C)C(C)C)[C@@H](C)O)C(=O)N[C@@H](Cc1ccc(O)cc1)C(=O)N[C@@H](Cc1c[nH]cn1)C(=O)N[C@@H](CCCCN)C(=O)N[C@@H](C)C(=O)N[C@@H](CCCCN)C(=O)N[C@@H](Cc1c[nH]cn1)C(=O)N[C@H](C(=O)N[C@@H](CCCCN)C(=O)N[C@@H](C)C(=O)N[C@@H](Cc1c[nH]c2ccccc12)C(=O)N[C@@H](CS)C(=O)O)[C@@H](C)O [Peptide P25.A81]
Antiviral activity of P25 homologous peptides to EV-A71/FY0805 [1]: displayed antiviral activity | IC50 (µg/mL) EV-A71 /FY0805 [1]: 23.60 ± 0.49 µg/mL (≈ 10.3 µM)

ADKNFFKWTINTRSFVQLRR [Peptide P11]
Inhibitory effect on CPE, peptide screen [6, 11]: exhibited inhibitory effects on CPE | Inhibitory effect on CPE, peptide screen [1]: exhibited inhibitory effects on CPE | Inhibitory effect on CPE, peptide screen [7, 11]: exhibited inhibitory effects on CPE

AWAKIHKPKMYVRVTVTFG [Peptide P25.R]
CC50 [3]: 98.27 ± 7.13 µg/mL

GFTVTVRVYMK [Peptide P25.1]
IC50 (µg/mL) EV-A71 /FY0805 [1]: 34.06 ± 9.39 µg/mL

HGLLYFAIFFVAAWHIRGR [Peptide H2-3]
EC50 [8]: 540 nM

QMRRKVELFTYMRFD [SP40, peptide derived from VP1 of EV-A71, prevented EV-A71 attachment]
EC50 [9]: 6000 to 9300 nM

SFAIKWEYVLLLFLL [Peptide 75]
EC50 [8]: 300 nM

SWLRDIWDWICEVLSDFK [Peptide C5A, peptide from NS5A of HCV, destabilizing viral membranes]
EC50 [8]: 340 nM

TVTVRVYHK [Peptide P25.4]
IC50 (µg/mL) EV-A71 /FY0805 [1]: >125 µg/mL

TVTVRVYMK [Peptide P25.3]
IC50 (µg/mL) EV-A71 /FY0805 [1]: >125 µg/mL
